The target of one assay is WDR5 (Homo sapiens, UniProt P61964). Description: TR-FRET competition binding assay, displacement of 10mer-Thr-FAM MLL peptide probe from His-tagged WDR5. Particulars: WDR5-His tag (residues 24-334) 2 nM; 10mer-Thr-FAM 150 nM; 60 min, room temperature; read-out: Ki for Inhibition of WDR5 by TR-FRET assay. On the procedure:
Time Resolved-Fluorescence Energy Transfer Competition Assay […] Excess 10mer-Thr-FAM probe was utilized with His-tagged WDR5 in conjunction with a commercial anti-His antibody containing a Terbium label. The LanthaScreenTM Elite Tb-anti-HIS Antibody from ThermoFisher Scientific was used for this purpose. […] The 10mer-Thr-FAM probe when bound to WDR5 will undergo a FRET interaction with the Tb-anti-HIS and emit at 520 nm. […] WDR[…] 10[…] used at 150 nM. […] A source plate is prepared using an Echo Liquid Handler, which distributes the compounds to the assay plate (white, flat-bottom; OptiPlate) in a 10-point, 5-fold dilution schemes with a top concentration of 5 μM, in a final volume of 20 μL. […] The final DMSO concentration in each well of the assay plate is 1% or lower. The plate is covered, shielded from light, and incubated for 60 minutes at room temperature with rocking. 10mer-Thr-FAM and Anti-His terbium antibody fluorescence is then measured on a Biotek Cytation 3 at excitation wavelength of 340 nm, and emission wavelengths of 495 nm and 520 nm. […] TR-FRET signal is plotted and IC50 and Ki values are calculated according to the formula of Wang Z. FEBS Lett (1996) 3, 245. Ki=[I]50/([L]50/Kd+[P]0/Kd+1) where [I]50 is the concentration of the free inhibitor at 50% inhibition, [L]50 is the concentration of the free labeled ligand at 50% inhibition, [P]0 is the concentration of the free protein at 0% inhibition, Kd represents the dissociation constant of the FITC-MLL or 10mer-Thr-FAM probe for WDR5. Total fluorescence is also measured, to rule out compounds that are inherently fluorescent or able to act as quenchers in the assay. TR-FRET Binding Assay
(In general: In TR-FRET formats the signal depends on donor and acceptor labels being close together.)

Assay [1] has as its system MV4:11 human cancer cell lines. Briefly: Cellular viability / anti-proliferative assay, CellTiter-Glo, 5 day protocol. The class given is cell-based. Particulars: Homo sapiens, MV4-11, 120 h, MV4:11 cells; 5 day incubation; CellTiter-Glo; mean of at least two replicates; read-out: GI50 on cellular proliferation of MV4:11 human cancer cell lines. In outline:
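Luminescent ATP-based viability (CellTiter-Glo) after a 5-day exposure gave GI50 via sigmoidal fitting, averaged over two or more replicates. Compounds spanned 22 two-fold steps down from 30 μM at 0.3% DMSO, on 200 MV-4-11 cells per well grown in IMDM plus 10% FBS.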
On the technique in general: In ATP-based viability assays light output follows the ATP content of the culture.

The term Ki denotes a measure of affinity in units of concentration, obtained from inhibition or displacement.

As for `COc1cc(OC)c2nc(C)cc(N3CCc4c(cc(Cn5ccnc5)cc4-c4cn(C)nc4C(F)(F)F)C3=O)c2c1` [Example 18, 7-((1H-Imidazol-1-yl)methyl)-2-(6,8-dimethoxy-2-methylquinolin-4-yl)-5-(1-methyl-3-(trifluoromethyl)-1H-pyrazol-4-yl)-3,4-dihydroisoquinolin-1(2H)-one], on WDR5, the Ki was less than 0.02 nM. Besides, the GI50 in assay [1] was less than 20 nM.

For the compound `COc1cc(C)cc2c(N3CCc4c(cc(Cn5ccnc5)cc4-c4cn(C)nc4C(F)(F)F)C3=O)ccnc12` [Example 19, 7-((1H-Imidazol-1-yl)methyl)-2-(8-methoxy-6-methylquinolin-4-yl)-5-(1-methyl-3-(trifluoromethyl)-1H-pyrazol-4-yl)-3,4-dihydroisoquinolin-1(2H)-one], on WDR5, the inhibition constant Ki was found to be 0.02 nM. Besides, the GI50 in assay [1] is 26 nM.

Turning to `CCc1cc(OC)c2nccc(N3CCc4c(cc(Cn5ccnc5)cc4-c4cn(C)nc4C(F)(F)F)C3=O)c2c1` [Example 20, 7-((1H-Imidazol-1-yl)methyl)-2-(6-ethyl-8-methoxyquinolin-4-yl)-5-(1-methyl-3-(trifluoromethyl)-1H-pyrazol-4-yl)-3,4-dihydroisoquinolin-1(2H)-one], on WDR5, the Ki was less than 0.02 nM. In addition, in assay [1], the GI50 is less than 20 nM.

On to `COc1ccc2c(Cl)ncc(N3CCc4c(cc(Cn5ccnc5)cc4-c4cn(C)nc4C(F)(F)F)C3=O)c2c1` [Example 21, 7-((1H-Imidazol-1-yl)methyl)-1′-chloro-6′-methoxy-5-(1-methyl-3-(trifluoromethyl)-1H-pyrazol-4-yl)-3,4-dihydro-1H-[2,4′-biisoquinolin]-1-one], for which, at WDR5, the inhibition constant Ki is less than 0.02 nM. The GI50 in assay [1] is 23 nM.

For `COc1ccc2c(OC)ncc(N3CCc4c(cc(Cn5ccnc5)cc4-c4cn(C)nc4C(F)(F)F)C3=O)c2c1` [Example 22, 7-((1H-imidazol-1-yl)methyl)-1′,6′-dimethoxy-5-(1-methyl-3-(trifluoromethyl)-1H-pyrazol-4-yl)-3,4-dihydro-1H-[2,4′-biisoquinolin]-one], the Ki on WDR5 amounted to 0.029 nM. Moreover, in assay [1], the GI50 is 111 nM.

Consider `COc1ccc(N2CCc3c(cc(Cn4ccnc4)cc3-c3cn(C)nc3C(F)(F)F)C2=O)c2cc(C)cnc12` [Example 23, 7-((1H-Imidazol-1-yl)methyl)-2-(8-methoxy-3-methylquinolin-5-yl)-5-(1-methyl-3-(trifluoromethyl)-1H-pyrazol-4-yl)-3,4-dihydroisoquinolin-1(2H)-one], for which, on WDR5, the inhibition constant (Ki) is less than 0.02 nM. Further, in assay [1], the GI50 came out at 210 nM.

Consider `Cc1cc(Cl)c2cncc(N3CCc4c(cc(Cn5ccnc5)cc4-c4cn(C)nc4C(F)(F)F)C3=O)c2c1` [Example 24, 7-((1H-Imidazol-1-yl)methyl)-8′-chloro-6′-methyl-5-(1-methyl-3-(trifluoromethyl)-1H-pyrazol-4-yl)-3,4-dihydro-1H-[2,4′-biisoquinolin]-1-one], for which the Ki on WDR5 was 0.026 nM. The GI50 in assay [1] amounted to 92 nM.

With `COc1ccc2ncnc(N3CCc4c(cc(Cn5ccnc5)cc4-c4cn(C)nc4C(F)(F)F)C3=O)c2c1` [Example 25, 7-((1H-Imidazol-1-yl)methyl)-2-(6-methoxyquinazolin-4-yl)-5-(1-methyl-3-(trifluoromethyl)-1H-pyrazol-4-yl)-3,4-dihydroisoquinolin-1(2)-one], the Ki at WDR5 worked out at 0.061 nM. Besides, the GI50 in assay [1] turned out to be 70 nM.

As for `Cc1cc2c(N3CCc4c(cc(Cn5ccnc5)cc4-c4cn(C)nc4C(F)(F)F)C3=O)cccc2n1C` [Example 26, 7-((1H-Imidazol-1-yl)methyl)-2-(1,2-dimethyl-1H-indol-4-yl)-5-(1-methyl-3-(trifluoromethyl)-1H-pyrazol-4-yl)-3,4-dihydroisoquinolin-1(2H)-one], at WDR5, the Ki was found to be 0.087 nM. Besides, the GI50 in assay [1] was determined as 369 nM.

For `Cc1nc2cccc(N3CCc4c(cc(Cn5ccnc5)cc4-c4cn(C)nc4C(F)(F)F)C3=O)c2o1` [Example 27, 7-((1H-Imidazol-1-yl)methyl)-5-(1-methyl-3-(trifluoromethyl)-1H-pyrazol-4-yl)-2-(2-methylbenzo[d]oxazol-7-yl)-3,4-dihydroisoquinolin-1(2H)-one], the Ki on WDR5 came to 4.6 nM. In addition, the GI50 in assay [1] is more than 30000 nM.

As for `Cc1cc2c(N3CCc4c(cc(Cn5ccnc5)cc4-c4cn(C)nc4C(F)(F)F)C3=O)ccnc2n1C` [Example 28, 7-((1H-Imidazol-1-yl)methyl)-2-(1,2-dimethyl-1H-pyrrolo[2,3-b]pyridin-4-yl)-5-(1-methyl-3-(trifluoromethyl)-1H-pyrazol-4-yl)-3,4-dihydroisoquinolin-1(2H)-one], the Ki at WDR5 is 0.032 nM. The GI50 in assay [1] was 281 nM.

For the compound `COc1cc(Br)c2nccc(N3CCc4c(cc(Cn5ccnc5)cc4-c4cn(C)nc4C(F)(F)F)C3=O)c2c1` [Example 29, 7-((1H-Imidazol-1-yl)methyl)-2-(8-bromo-6-methoxyquinolin-4-yl)-5-(1-methyl-3-(trifluoromethyl)-1H-pyrazol-4-yl)-3,4-dihydroisoquinolin-1(2H)-one], on WDR5, the Ki is less than 0.02 nM. In addition, the GI50 in assay [1] was found to be 65 nM.

For `COc1cc(N2CCOCC2)c2nccc(N3CCc4c(cc(Cn5ccnc5)cc4-c4cn(C)nc4C(F)(F)F)C3=O)c2c1` [Example 30, 7-((1H-Imidazol-1-yl)methyl)-2-(6-methoxy-8-morpholinoquinolin-4-yl)-5-(1-methyl-3-(trifluoromethyl)-1H-pyrazol-4-yl)-3,4-dihydroisoquinolin-1(2H)-one], the Ki on WDR5 is less than 0.02 nM. Besides, the GI50 in assay [1] is less than 20 nM.

Consider `COc1cc(N2CCN(C)CC2)c2nccc(N3CCc4c(cc(Cn5ccnc5)cc4-c4cn(C)nc4C(F)(F)F)C3=O)c2c1` [Example 31, 7-((1H-Imidazol-1-yl)methyl)-2-(6-methoxy-8-(4-methylpiperazin-1-yl)quinolin-4-yl)-5-(1-methyl-3-(trifluoromethyl)-1H-pyrazol-4-yl)-3,4-dihydroisoquinolin-1(2H)-one], for which the Ki on WDR5 was less than 0.02 nM. Moreover, the GI50 in assay [1] is less than 20 nM.

Take `CCc1cc(N(C)C)c2nccc(N3CCc4c(cc(Cn5ccnc5)cc4-c4cn(C)nc4C(F)(F)F)C3=O)c2c1` [Example 35, 7-((1H-Imidazol-1-yl)methyl)-2-(8-(dimethylamino)-6-ethylquinolin-4-yl)-5-(1-methyl-3-(trifluoromethyl)-1H-pyrazol-4-yl)-3,4-dihydroisoquinolin-1(2H)-one]: the inhibition constant Ki on WDR5 is less than 0.02 nM. Moreover, in assay [1], the GI50 turned out to be 76 nM.

With `CCc1cc(N2CCOCC2)c2nccc(N3CCc4c(cc(Cn5ccnc5)cc4-c4cn(C)nc4C(F)(F)F)C3=O)c2c1` [Example 36, 7-((1H-Imidazol-1-yl)methyl)-2-(6-ethyl-8-morpholinoquinolin-4-yl)-5-(1-methyl-3-(trifluoromethyl)-1H-pyrazol-4-yl)-3,4-dihydroisoquinolin-1(2H)-one], the Ki at WDR5 was less than 0.02 nM. The GI50 in assay [1] was found to be 23 nM.

`CCc1cc(N2CCN(C)CC2)c2nccc(N3CCc4c(cc(Cn5ccnc5)cc4-c4cn(C)nc4C(F)(F)F)C3=O)c2c1` [Example 37, 7-((1H-Imidazol-1-yl)methyl)-2-(6-ethyl-8-(4-methylpiperazin-1-yl)quinolin-4-yl)-5-(1-methyl-3-(trifluoromethyl)-1H-pyrazol-4-yl)-3,4-dihydroisoquinolin-1(2H)-one]: at WDR5, the inhibitory constant (Ki) is less than 0.02 nM. Further, the GI50 in assay [1] is less than 20 nM.

In the case of `CCc1cc(N(C)CCN(C)C)c2nccc(N3CCc4c(cc(Cn5ccnc5)cc4-c4cn(C)nc4C(F)(F)F)C3=O)c2c1` [Example 38, 7-((1H-Imidazol-1-yl)methyl)-2-(8-((2-(dimethylamino)ethyl)(methyl)amino)-6-ethylquinolin-4-yl)-5-(1-methyl-3-(trifluoromethyl)-1H-pyrazol-4-yl)-3,4-dihydroisoquinolin-1(2H)-one], the inhibition constant (Ki) at WDR5 is less than 0.02 nM. Further, the GI50 in assay [1] was determined as 31 nM.

Consider `CNC(=O)c1cc(OC)cc2c(N3CCc4c(cc(Cn5ccnc5)cc4-c4cn(C)nc4C(F)(F)F)C3=O)ccnc12` [Example 42, 4-(7-((1H-Imidazol-1-yl)methyl)-5-(1-methyl-3-(trifluoromethyl)-1H-pyrazol-4-yl)-1-oxo-3,4-dihydroisoquinolin-2(1H)-yl)-6-methoxy-N-methylquinoline-8-carboxamide], for which, on WDR5, the inhibition constant (Ki) is less than 0.02 nM. The GI50 in assay [1] stood at 20 nM.

(Values after patent US12692249B2, “WDR5 inhibitors and modulators” (Vanderbilt University, priority 2019, dated 2026).)
